Measurements: PubChem BioAssay AID720570 (Broad Institute, 2013)

system: TC71 Ewing sarcoma viability, CellTiter-Glo ATP, 72 h; assay: TC71 Ewing sarcoma cell killing, confirmation, luminescence, cherry-picked samples, retest (AID 720570)

| SMILES | AC35 |
| --- | --- |
| Cc1ccc(/C=N/Nc2ccc3ccccc3n2)o1 | 18.4 µM |
| COc1ccc(NC(=O)N2CCCCN3[C@@H](CO)[C@H](c4ccc(C5=CCCCC5)cc4)[C@@H]3C2)cc1 | 23.3 µM |
| CCOc1ccc(N=Nc2ccc(O)c3ncccc23)cc1 | 2.8 µM |
| O=C(NC[C@@H]1N[C@@H](CO)[C@H]1c1ccc(C2=CCCCC2)cc1)c1cccc(F)c1 | 12.3 µM |
| Cc1noc(C)c1C(=O)Nc1sccc1C(N)=O | 13.6 µM |
| O=C(Nc1ccccc1F)N1CCCCN2[C@H](CO)[C@H](c3ccc(/C=C/c4ccccc4)cc3)[C@H]2C1 | 10.6 µM |
| CCN1/C(=C/C(C)=C/c2sc3ccccc3[n+]2CC)Sc2ccccc21 | 0.951 µM |
| COC(=O)C[C@@H]1CC[C@@H]2[C@H](COc3ccc(NC(=O)c4cc(C)on4)cc3C(=O)N2C)O1 | 12 µM |
| CCC1=Nc2cc(C(=O)NCC3CCCO3)ccc2Sc2ccc(Br)cc21 (configuration not stated) | 6.83 µM |
| Cc1c(Cl)cccc1NC(=O)CCC(=O)N/N=C/c1ccc[nH]1 | 4.44 µM |
| CN(C[C@H]1N[C@@H](CO)[C@@H]1c1ccc(C2=CCCC2)cc1)C(=O)c1ccc(F)cc1 | 3.92 µM |
| CCc1nc(N)nc(N)c1-c1ccc(Cl)c(N=[N+]=[N-])c1 | 3.56 µM |
| Cc1nc(N)nc(N)c1CCCc1ccc(Cl)c(Cl)c1 | 1.81 µM |
| Nc1nc(=S)c2[nH]cnc2[nH]1 | 1.54 µM |
| Cc1cccc(CN2C(=O)/C(=C\c3ccc(C(=O)NCCCN4CCN(C)CC4)cc3)Oc3ccccc32)c1 | 12.9 µM |
| CCN1CCS/C1=C\C=C\C1=[N+](CC)CCS1 | 9.96 µM |
| N#CC(=C1C=CC(=NO)C(Cl)=C1)c1ccccc1 | 6.4 µM |
| COc1cccc(-c2cc(NC=O)c3ncc(-c4ccc(C(C)=O)cc4)n3c2)c1 | 1.78 µM |
| Cc1ccc(N2C(=O)c3cccc4c(N)ccc(c34)C2=O)c2cccnc12 | 0.0977 µM |
| O=C1c2ccccc2C(=O)N1CCCCNc1ccccc1 | 5.25 µM |
| Cc1ccc2c(=O)n3c(nc2c1)C(Cc1ccc(O)cc1)NC(=O)c1cc2ccccc2cc1-3 (configuration not stated) | 9.76 µM |
| CC(C)N1C/C(=C/c2cccnc2)C(=O)/C(=C/c2cccnc2)C1 | 22.6 µM |
| C[C@H]1CN([C@@H](C)CO)C(=O)c2cc(NS(=O)(=O)c3ccc(Cl)cc3)ccc2O[C@H]1CN(C)Cc1ccc(C(=O)Nc2ccccc2N)cc1 | 14.7 µM |
| Cc1cc(C)cc(N2C(=O)NC(=O)/C(=C\C=C\c3ccco3)C2=O)c1 | 11.3 µM |
| C[C@@H]1CN([C@H](C)CO)C(=O)Cc2cc(NC(=O)CCCCCC(=O)Nc3ccccc3N)ccc2O[C@@H]1CN(C)CC1CCCCC1 | 16.9 µM |

| SMILES | AC35 |
| --- | --- |
| Cc1nc(N)nc(N)c1-c1ccc(Cl)c(Cl)c1 | 0.714 µM |
| CC1OC(OC2CC(O)C3(CO)C4C(O)CC5(C)C(C6=CC(=O)OC6)CCC5(O)C4CCC3(O)C2)C(O)C(O)C1O (configuration not stated) | 0.173 µM |
| O=C(/C=C/c1cc(Br)ccc1O)c1ccco1 | 16.7 µM |
| C[C@@H]1CN([C@@H](C)CO)C(=O)c2cccc(NS(=O)(=O)c3ccc(Cl)cc3)c2O[C@@H]1CN(C)Cc1ccc(C(=O)Nc2ccccc2N)cc1 | 9.9 µM |
| C[C@@H]1CN([C@@H](C)CO)C(=O)Cc2cc(NS(=O)(=O)c3cccs3)ccc2O[C@H]1CN(C)Cc1ccc(Cl)c(Cl)c1 | 12.3 µM |
| O=c1c2ccccc2nc(/C=C/c2cc(Br)ccc2O)n1CCCO | 13.8 µM |
| N#CC(C#N)=C1C=CC=CN1/C(=C\c1ccco1)C(=O)c1ccc(Cl)cc1 | 8.19 µM |
| C(=N\Nc1nc2ccccc2s1)/c1ccccn1 | 3.07 µM |
| COc1ccc(OC)c(Cc2cnc3nc(N)nc(N)c3c2C)c1 | 0.0778 µM |
| Nc1nc(N)c2cc(Sc3ccc4ccccc4c3)ccc2n1 | 1.83 µM |
| COc1ccc(C2=Nn3c(nnc3-c3ccccc3F)SC2)cc1OC1CCOC1 (configuration not stated) | 4.93 µM |
| CN(C)c1ccc(-c2ccnc3c2CC(C)(C(=O)NCc2ccco2)O3)cc1 (configuration not stated) | 10.4 µM |
| C=C1C(=O)[C@@]23[C@H](O)C[C@@H]4C(C)(C)CC[C@H](O)[C@@]4(C)[C@@H]2CC[C@@H]1[C@H]3O | 9.15 µM |
| COc1ccc(C(C)(O)c2nc(-c3cccc(F)c3)cs2)cc1 (configuration not stated) | 12.8 µM |
| O=C(NCc1cccnc1)C1Cc2c(-c3ccc(Cl)cc3)ccnc2O1 (configuration not stated) | 13.2 µM |
| CN(C)c1ncnc2c1ccn2C1OC(CO)C(O)C1O (configuration not stated) | 7.06 µM |
| N#C[C@H]1N[C@H](CO)[C@H]1c1ccc(C#Cc2ccc(F)cc2)cc1 | 18.3 µM |
| COc1ccc(CCCNC(=O)C2Cc3c(-c4ccc5c(c4)OCO5)ccnc3O2)cc1 (configuration not stated) | 3.47 µM |
| Nc1nc(N)c2c(ccc3nccc32)[nH]1 | 3.24 µM |
| CCCCCCCCn1c2c(c(=N)c3c1CCC3)CCCC2 | 4.88 µM |
| COc1ccc(OC)c(-c2nnc3n2N=C(c2ccc(OC)c(OC4CCCC4)c2)CS3)c1 | 3.81 µM |
| CN(C)CC1CCC/C(=C\c2ccc(OC(=O)c3ccc(Cl)cc3)cc2)C1=O (configuration not stated) | 3.4 µM |
| CC(=O)OC1CC2(O)C3CCC4CC(O)CCC4(C)C3CCC2(C)C1C1=CC(=O)OC1 (configuration not stated) | 0.797 µM |
| C[C@@H]1CN([C@@H](C)CO)C(=O)Cc2cc(NC(=O)Nc3ccc(C(F)(F)F)cc3)ccc2O[C@@H]1CN(C)Cc1ccc(C(=O)Nc2ccccc2N)cc1 | 10.4 µM |
| COc1ccc(C2=NNC(=Nc3cc(S(=O)(=O)N(C)C)ccc3C)SC2)c(OC)c1 | 11.9 µM |

| SMILES | AC35 |
| --- | --- |
| C[C@H](CO)N1C[C@H](C)[C@H](CN(C)Cc2ccc(C(=O)Nc3ccccc3N)cc2)Oc2ccc(N(C)C)cc2CC1=O | 6.82 µM |
| C[C@@H]1CCCCO[C@H](CN(C)Cc2ccc(C(=O)Nc3ccccc3N)cc2)[C@@H](C)CN([C@H](C)CO)C(=O)c2cc(NS(=O)(=O)c3ccc(Cl)cc3)ccc2O1 | 16.2 µM |
| O=C(Nc1ccc2c(c1)OCO2)N1C[C@@H]2N[C@H](C1)C2c1ccc(C=Cc2ccccc2)cc1 (some centres not stated) | 12.8 µM |
| C[C@H]1CN([C@@H](C)CO)C(=O)Cc2cc(NC(=O)CCCCCC(=O)Nc3ccccc3N)ccc2O[C@H]1CN(C)Cc1ccc(Oc2ccccc2)cc1 | 11.5 µM |
| COc1ccc(-c2nc3c(s2)CCc2onc(-c4ccc(OC)cc4)c2-3)cc1 | 13.3 µM |
| C[C@@H]1CN([C@@H](C)CO)C(=O)c2cccc(N(C)C)c2O[C@@H]1CN(C)Cc1ccc(C(=O)Nc2ccccc2N)cc1 | 21.1 µM |
| C(=NNc1ccc2ccccc2n1)c1ccccn1 | 1.55 µM |
| BrC(=C\c1ccccc1)/C=N/n1cnnc1 | 14.5 µM |
| C=C1C(=O)O[C@@H]2[C@H]1[C@@H](OC(=O)/C(C)=C/C)C/C(C)=C\C(=O)/C=C(\C)[C@@H]2O | 9.79 µM |
| c1ccc(Nc2nnc(-c3ccc4c(c3)OCO4)o2)cc1 | 12 µM |
| C[C@@H]1CN([C@H](C)CO)C(=O)c2cc(C#CCN(C)C)cnc2O[C@H]1CN(C)Cc1ccc(-c2ccccc2)cc1 | 22.2 µM |
| C[C@H]1CN([C@@H](C)CO)C(=O)c2cc(NS(=O)(=O)c3ccc(Cl)cc3)ccc2O[C@H]1CN(C)Cc1ccc(Cl)c(Cl)c1 | 20.3 µM |
| CC(C)N1C/C(=C/c2ccsc2)C(=O)/C(=C/c2ccsc2)C1 | 14 µM |
| Oc1c(Cl)cc(Cl)c(Cl)c1Cc1c(O)c(Cl)cc(Cl)c1Cl | 3.22 µM |
| Cc1cc(C)cc(C(=O)NC(=S)Nc2ccc(Cc3ccncc3)cc2)c1 | 7.66 µM |
| C[C@@H]1CN([C@H](C)CO)C(=O)c2cc(NC(=O)c3ccccc3)ccc2O[C@@H](C)CCCCO[C@H]1CN(C)C(=O)Nc1cccc2ccccc12 | 1.58 µM |
| C[C@H]1CCCCO[C@H](CN(C)Cc2ccc(C(F)(F)F)cc2)[C@@H](C)CN([C@@H](C)CO)C(=O)c2cc(NC(=O)Nc3ccccc3)ccc2O1 | 12.4 µM |
| COc1ccc(-c2cc(CNc3nc(NC(C)C)nc4cc(-c5ccccc5)sc34)on2)cc1 | 12.1 µM |
| Cc1nc2ncccn2c1-c1csc(Nc2ccc(O)cc2)n1 | 4.74 µM |
| N/C(=C\C(=O)c1cc(Cl)ccc1O)C(Cl)(Cl)Cl | 9.12 µM |
| O=C1c2ccccc2C(=O)c2cc(N3CCCCC3)ccc21 | 23.3 µM |
| O=C(Nc1ccc(F)cc1)N1CCCCN2[C@@H](CO)[C@H](c3ccc(C4=CCCCC4)cc3)[C@@H]2C1 | 22.4 µM |
| CCc1nc(N)nc(N)c1-c1ccc(Cl)cc1 | 6.12 µM |
| O=c1cc(-c2ccccc2)oc2ccc3ccccc3c12 | 10.7 µM |
| O=C(N/N=C/c1cnc(N2CCCCC2)s1)c1ccc(C(F)(F)F)cc1 | 20.9 µM |

| SMILES | AC35 |
| --- | --- |
| CCCCc1c(-c2ccccc2OC)ncn1Cc1ccc(C(C)(C)C)cc1 | 13.1 µM |
| CCNC(=O)c1cc2c(c(-c3cccc(-c4cccc(OC)c4)c3)n1)[C@H](CCO)N([S@@](=O)C(C)(C)C)C2 | 7.43 µM |
| COc1cccc(O)c1CN1CCC(C(=O)Nc2ccc(-c3cccc(C)c3)cc2)CC1 | 20.7 µM |
| C=C1C(=O)OC2C1CCC(C)C1(O)C=CC(=O)C21C (configuration not stated) | 12.6 µM |
| COc1cc(C(=O)N2CCC(N3CCN(C)CC3)CC2)ccc1Nc1ncc2c(n1)N(C)c1ccccc1C(=O)N2C | 11.4 µM |
| O=C1NC(=O)N(Cc2ccccc2)C(=O)/C1=C\C=C\c1ccco1 | 10.2 µM |
| Cc1cc(C)c2sc(NNC(=O)c3ccc(S(=O)(=O)N4CCc5ccccc5C4)cc3)nc2c1 | 2.4 µM |
| N#CC1C=Cc2c(ccc3ccccc23)N1C(=O)c1ccccc1 (configuration not stated) | 1.45 µM |
| N#CC1=C(N)Oc2cc(N)ccc2C1c1cccc(Br)c1 (configuration not stated) | 0.845 µM |
| CN1C(=O)c2cc(NC(=O)c3ccc(Cl)cc3)ccc2OC[C@@H]2O[C@@H](CC(=O)NCc3cccc(F)c3)CC[C@H]21 | 5.21 µM |
| COc1cc2c(cc1OC)C(C)N(C(=O)c1cc(Cl)nc(Cl)c1)CC2 (configuration not stated) | 11.9 µM |
| CN(c1ccc(NC(=O)CCc2c[nH]c3ccccc23)cc1)c1ccccn1 | 8.74 µM |
| COc1ccc(CC(N)c2csc(NC(=O)Nc3cccc(C(F)(F)F)c3)n2)cc1 (configuration not stated) | 19.1 µM |
| COc1ccc(Cn2cc3c(-c4ccc(F)cc4)nnc-3c3cc(OC)c(OC)cc32)cc1 | 13.4 µM |
| C[C@H](CO)N1C[C@H](C)[C@H](CN(C)Cc2ccc(C(=O)Nc3ccccc3N)cc2)Oc2ccc(NC(=O)C3CC3)cc2CC1=O | 9.49 µM |
| CC12CCC(O)CC1CCC1C2CCC2(C)C(C3=CC(=O)OC3)CCC12O (configuration not stated) | 1.17 µM |
| C[C@]12CC[C@H](O)C[C@H]1CC[C@@H]1[C@@H]2C[C@@H](O)[C@]2(C)[C@@H](C3=CC(=O)OC3)CC[C@]12O | 3.35 µM |
| CCCc1cc(=O)oc2c3c(c4c(c12)OC(C)(C)C=C4)OC(C)C(C)C3O (configuration not stated) | 22.6 µM |
| O=C1NC2C(=CC(O)C(O)C2O)c2cc3c(cc21)OCO3 (configuration not stated) | 3.67 µM |
| COc1ccccc1C(CCNCc1ccc(N(C)C)cc1)c1ccc(OC(C)C)cc1 (configuration not stated) | 10.9 µM |
| C[C@H](CO)N1C[C@H](C)[C@H](CN(C)Cc2ccccc2)Oc2ccc(NC(=O)CCCCCC(=O)Nc3ccccc3N)cc2CC1=O | 15.1 µM |
| CCCCC[C@H](C)N1C[C@H](COCc2ccccc2)Oc2cc(N3CC[C@@H](N(C)C)C3)ccc2S1(=O)=O | 14.2 µM |
